For one data set, the system named is rat crystalline lens. Nature of the data set: Progression of cataract in streptozotocin-induced diabetic rats (slit lamp, 7 stages). The data set is classed as in vivo, male SD rats. To be noted: 400 mg/kg/day oral. The procedure:
(§1) A second group received tap water similarly.
(§2) Blood glucose was determined 2 days and 11 weeks after administration of streptozotocin to confirm that the rats were in hyperglycemic condition. Further, body weight was determined periodically during the study period. After 11 weeks, the blood was withdrawn from the abdominal aorta for clinical serum chemical examination. Moreover, to monitor the cataract supervening in diabetes, the rat crystalline lens was periodically examined using a slit lamp.
The progression of cataract was evaluated on the scale of the following 7 stages up to mature cataract.
0: No lens opacity at all
I: Slight opacity of the lens epithelium or small vacuoles in the equatorial region.
II: Vacuoles multiplying and merging to spread into the cortex.
III: The vacuoles pervading most of the cortex have begun to disappear.
IV: The majority of vacuoles have disappeared and the whole cortex is translucent.
V: Opacity of the lens nucleus.
VI: Opacity of the whole lens (mature cataract)
Then, cataract which is a diabetic complication ready to develop in such diabetic animal models was studied by monitoring the rats for 11 weeks.
The bar graphs in FIG. 1(a) through (f) show the time course of cataract stages. […]

A short description of data set [1]: Time course of body weight in streptozotocin-induced diabetic rats. To be noted: long-term repeated administration, 400 mg/kg/day oral. The data set is classed as in vivo, male SD rats. The procedure: (§3) The effects of oral administration of cysteine in diabetic rats were investigated.
as §1, §2

The subject of the next data set is lens sorbitol. Nature of the data set: Sorbitol content of the lens in streptozotocin-induced diabetic rats. To be noted: for Sorbitol content of the lens: n = 4-5.
Data set [2] deals with diabetic rats. The experiment in a line: Blood glucose in streptozotocin-induced diabetic rats. The data set is classed as in vivo, male SD rats. To be noted: cysteine 400 mg/kg/day oral, n = 8-10, normal 220 ± 20. The protocol:
as §3, §1, §2

In data set [3] the test system is diabetic rats. The experiment in a line: Clinical serum chemistry values at week 11 in streptozotocin-induced diabetic rats. The data set is classed as in vivo, male SD rats. To be noted: 400 mg/kg/day oral. The procedure: as §3, §1, §2

Molecules are shown by their SMILES.

Method for lens sorbitol: Using male SD rats weighing about 100 g, experimental diabetes was induced by injecting 70 mg/kg of streptozotocin into the caudal vein.
The rats were divided into 2 groups of 10 individuals. A first group of rats were given a 10% aqueous solution of cysteine in a volume of 0.2 ml/100 g body weight twice daily (cysteine 400 mg/kg/day) by gastric gavage beginning the day before administration of streptozotocin. This group is referred to as the cysteine-treated group. A second group received tap water similarly. This group is referred to as the control group.

As for `N[C@@H](CS)C(=O)O` [cysteine], the “Progress of cataract compared with the control group” value in the data set on rat crystalline lens (any observation period (2, 4, 6, 8, 10, 11 weeks), FIG. 1) is listed as “the progress of cataract was inhibited”. In addition, in the data set on rat crystalline lens (p<0.0001 vs control), the “Effect on progression of cataract (cumulative variance analysis)” value is recorded as “significant retarding effect on the progression of cataract”. Further, the “Effect on body weight gain in diabetic rats” value in data set [1] is reported as “did not affect the body weight gain”. Also, the “Accumulation of sorbitol in the lens, cysteine-treated vs control group” value in the data set on lens sorbitol (2 and 3 weeks after streptozotocin) is listed as “no significant difference”. In addition, the “Sorbitol content of the lens” value with lens sorbitol (after 2 weeks, control 0.996 ± 0.286) worked out at 1.056 ± 0.166 μmole/lens; in the data set on lens sorbitol (after 3 weeks, control 1.186 ± 0.164) it was 1.025 ± 0.031 μmole/lens. For the same compound, the Blood glucose in the data set with diabetic rats [2] (after 11 weeks, control 721 ± 75) came to 767 ± 77 mg/dL; in the data set with diabetic rats [2] (after 2 days, control 521 ± 78), 559 ± 99 mg/dL. For the same compound, the “Serum chemical parameters (overall)” value with diabetic rats [3] is given as “close to the normal values”. Also, the Total bilirubin in the data set on diabetic rats [3] (n = 8-10, normal 0.2 ± 0.0, control 0.43 ± 0.23) is 0.28 ± 0.18 mg/dL. In the data set with diabetic rats [3] (n = 8-10, normal 1.8 ± 0.4, control 2.5 ± 2.5), this compound returned a Uric acid of 1.5 ± 0.5 mg/dL. The compound further returned a γ-GTP with diabetic rats [3] (n = 8-10, normal 2.4 ± 2.0, control 42.9 ± 31.3) of 13.4 ± 7.2 U/L. Further, the Lipid peroxide in the data set with diabetic rats [3] (n = 8-10, normal 3.95 ± 0.53, control 5.40 ± 0.68) was determined as 4.48 ± 0.56 nmol/dL. In the data set with diabetic rats [3] (n = 8-10, normal 48 ± 8, control 83 ± 25), this compound had an ALP of 68 ± 26 KAU. Further, in the data set with diabetic rats [3] (n = 8-10, normal 51 ± 6, control 175 ± 76), the Total cholesterol was 118 ± 57 mg/dL. This compound returned a GPT in the data set with diabetic rats [3] (n = 8-10, normal 61 ± 27, control 450 ± 320) of 311 ± 184 U/L. In the data set on diabetic rats [3] (n = 8-10, normal 90 ± 25, control 1437 ± 858), this compound showed a Neutral lipid of 645 ± 605 mg/dL. In the data set on diabetic rats [3] (n = 8-10, normal 102 ± 42, control 952 ± 1038), this compound returned a GOT of 495 ± 358 U/L. In addition, the β-lipoprotein in the data set on diabetic rats [3] (n = 8-10, normal 112 ± 13, control 493 ± 233) came out at 299 ± 173 mg/dL. The compound also registered an LAP with diabetic rats [3] (n = 8-10, normal 199 ± 15, control 297 ± 78) of 234 ± 66 GRU. In the data set with diabetic rats [3] (thymol turbidity test, n = 8-10, normal 0.15 ± 0.05, control 3.94 ± 3.88), this compound registered a TTT of 1.03 ± 0.90 U. For the same compound, in the data set on diabetic rats [3] (zinc sulfate test, n = 8-10, normal 1.2 ± 0.1, control 6.2 ± 4.8), the ZST is given as 2.6 ± 1.3 U.

For the origin of these results see patent US4794124A, “Therapeutic composition for diabetic complications” (priority 1985, dated 1988).
